Results as given in the supplement of paper PMC8671470.
± gives the standard deviation of the averaged measurements.

Columns and labels:
Conditions in all cases: 72 h
[1] = tested on: MV4-11; test: cell viability (% survival relative to DMSO control, bortezomib = 0%); higher = less cytotoxic
In short: (§1)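 Percent survival is reported as the mean of duplicate wells. Cells from 10 AML and 5 CML lines were plated in 384-well plates containing compounds at 1, 10, 100, 1000 or 10000 nM and kept for 72 h at 37 °C in 5% CO2. Readout used CellTiter-Glo luminescence, scaled so that vehicle equals 100% and a 10 µM positive control equals 0%.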

[2] = tested on: K-562; test: as above
In short: as §1

[3] = tested on: NOMO-1; test: as above
In short: as §1

[4] = tested on: KCL-22; test: as above
In short: as §1

[5] = tested on: SHI-1; test: as above
In short: as §1

[6] = tested on: LAMA-84; test: as above
In short: as §1

[7] = tested on: ML-2; test: as above
In short: as §1

[8] = tested on: Mono-Mac-6; test: as above
In short: as §1

[9] = tested on: KG-1; test: as above
In short: as §1

[10] = tested on: BV-173; test: as above
In short: as §1

[11] = tested on: THP-1; test: as above
In short: as §1

[12] = tested on: HEL; test: as above
In short: as §1

[13] = tested on: HL-60; test: as above
In short: as §1

[14] = tested on: MOLM-13; test: as above
In short: as §1

[15] = tested on: KU-812; test: as above
In short: as §1

[16] = tested on: NOMO-1
In short: (§2)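 Seeded in RPMI 1640 at densities within the linear growth range, fifteen myeloid leukaemia cell lines were dispensed into 384-well plates with acoustically pre-printed compounds spanning five tenfold doses from 1 to 10,000 nM, in duplicate. The plates were kept for 72 h at 37 °C in 5% CO2 before luminescent ATP viability was measured and normalised to vehicle and to a positive control at 10 µM. Curves were fitted with a four-parameter log-logistic model. The IC50 was taken from those curves.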

[17] = tested on: KCL-22
In short: as §2

[18] = tested on: ML-2
In short: as §2

[19] = tested on: KG-1
In short: as §2

[20] = tested on: HL-60
In short: as §2

[21] = tested on: HL-60; test: cell viability (% survival relative to DMSO control); higher = less cytotoxic
In short: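 HL-60 cells grown in RPMI 1640 with 10% FBS were rescreened against the full library in 384-well plates, in duplicate, at five tenfold concentrations from 1 to 10,000 nM, alongside DMSO or 100 nM of one of three metabolic inhibitors for 72 h at 37 °C, 5% CO2. Reference wells contained DMSO or 10 μM proteasome inhibitor. Viability was read with CellTiter-Glo and normalised to these reference wells, and where reported, area under the curve was taken from four-parameter log-logistic fits in drc and PharmacoGx.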

CCc1oc2ccccc2c1C(=O)c1cc(Br)c(O)c(Br)c1 [Benzbromarone]
cell viability [%]
Conditions | 1 nM | 10 nM | 100 nM | 1000 nM | 10000 nM
[1] | 107 | 100 | 97 | 91.2 | 118
[2] | 117 | 94.6 | 103 | 97.7 | 103
[3] | 95.1 | 103 | 94.8 | 93.9 | 109
[4] | 108 | 90.7 | 91.5 | 90.2 | 124
[5] | 104 | 86 | 104 | 103 | 117
[6] | 103 | 98.7 | 96.3 | 96.1 | 107
[7] | 99.6 | 96.6 | 109 | 93.4 | 109
[8] | 102 | 95.3 | 106 | 102 | 126
[9] | 95.7 | 97.7 | 102 | 94.1 | 102
[10] | 106 | 94.1 | 117 | 95.9 | 127
[11] | 105 | 95.7 | 112 | 101 | 86.3
[12] | 92.3 | 101 | 101 | 89.8 | 122
[13] | 88.5 | 88.1 | 136 | 94.1 | 104
[14] | 101 | 101 | 91.3 | 90.8 | 136
[15] | 100 | 95.2 | 97.9 | 87.4 | 104

Conditions | IC50 (cell viability) [nM]
[16] | > 10000
[17] | > 10000
[18] | > 10000
[19] | > 10000
[20] | > 10000

cell viability [%], [21]
Conditions | 0.001 µM | 0.01 µM | 0.1 µM | 1 µM | 10 µM
co-treatment: AZD3965 100 nM | 98.7 ± 1.8 | 99.3 ± 1.6 | 98.9 ± 1.8 | 102 ± 2.5 | 99.81 ± 0.45
co-treatment: DMSO vehicle | 101 ± 1.1 | 99 ± 2.1 | 101 ± 4 | 103 ± 2.3 | 101.1 ± 0.99
co-treatment: GSK2194069 100 nM | 95.9 ± 1.3 | 104 ± 4.5 | 105 ± 9.6 | 102.3 ± 0.5 | 97.85 ± 0.96
co-treatment: pictilisib 100 nM | 93.8 ± 3.1 | 99.8 ± 1 | 97.7 ± 4.2 | 118 ± 10 | 98 ± 12

O=C(/C=C/c1ccc(O)c(O)c1)OCCc1ccccc1 [Caffeic acid phenethyl ester]
cell viability [%]
Conditions | 1 nM | 10 nM | 100 nM | 1000 nM | 10000 nM
[1] | 94.5 | 90.6 | 111 | 65 | 0.624
[2] | 90.1 | 94.8 | 97.8 | 95.2 | 48.5
[3] | 93.6 | 96.3 | 86.1 | 80.8 | 85.5
[4] | 87.2 | 108 | 93.3 | 71.9 | 35.8
[5] | 95.7 | 99.5 | 103 | 86.1 | 69
[6] | 105 | 104 | 98.1 | 89.3 | 36.3
[7] | 97.8 | 106 | 104 | 61.4 | 2.29
[8] | 95 | 92.7 | 102 | 79.1 | 39.4
[9] | 97.2 | 102 | 94.7 | 61 | 23.5
[10] | 93.2 | 102 | 94.3 | 31.9 | 1.21
[11] | 92.7 | 100 | 91.9 | 86.3 | 51
[12] | 92.8 | 96.8 | 84.1 | 77.9 | 24.8
[13] | 96.3 | 111 | 92.2 | 56.7 | 16.2
[14] | 90.7 | 94.9 | 81.9 | 97.2 | 50.8
[15] | 96.1 | 93 | 93.2 | 33.2 | 7.74

Conditions | IC50 (cell viability) [nM]
[16] | > 10000
[17] | 2210
[18] | 1260
[19] | 1100
[20] | 1070

cell viability [%], [21]
Conditions | 0.001 µM | 0.01 µM | 0.1 µM | 1 µM | 10 µM
co-treatment: AZD3965 100 nM | 98.9 ± 2.2 | 99.96 ± 0.96 | 104 ± 2.9 | 103 ± 3.5 | 27.4 ± 6.4
co-treatment: DMSO vehicle | 76 ± 30 | 95.8 ± 5.6 | 98.75 ± 0.36 | 98.83 ± 0.38 | 33.3 ± 0.83
co-treatment: GSK2194069 100 nM | 93.3 ± 16 | 100.7 ± 0.46 | 102 ± 4.3 | 97.1 ± 1.9 | 33.1 ± 8
co-treatment: pictilisib 100 nM | 101 ± 3.8 | 102 ± 3.9 | 96.7 ± 7.8 | 81.5 ± 5.5 | 22.1 ± 7.5
